Among the test systems are CAKI-1; COLO 205; DU-145; HCC 2998; HL-60; HOP-62; MDA-N; MOLT-4; Malme-3M; NCI-H226; NCI/ADR-RES; OVCAR-3; OVCAR-4; RXF 393; SF-295; SK-OV-3; SN12C; SNB-75; U-251.
What all share (test): NCI anticancer screen, dose series, 48 h

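Tested at 5 concentrations; 48 h exposure; 96-well plates; endpoints linearly interpolated, else capped at highest concentration. GI50 is the concentration that inhibits growth by half.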 The source made the active and inactive calls. Rule as the data show it: active = GI50 up to about 1.1 µM and inactive = higher. *1 amine or outer side, *2 acyl side, *3 side chain or, on linkers, in order; H or OH if unused. Where a SMILES comes first, the peptide text is derived from it. Bridges are numbered along the chain shown (N, C = ends). [ ]: non-standard residue; d: D form. ξ: configuration not given here. X10 = CCC(C)C(N[*:1])C(O)CC(=O)O[C@H](C(=O)C(C)C(=O)[*:2])C(C)C; NMeY = CN[C@@H](Cc1ccc(O)cc1)C(=O)O; ξNMeL = CNC(CC(C)C)C(=O)O; ξT = CC(O)C(N)C(=O)O A value given as a limit tells only on which side of the number the result lay.

For `O=C(NC/C=C/Br)NC1CCNc2ccccc21` (stereo not drawn), the GI50 in the assay on CAKI-1 is 42.1 µM (inactive); with COLO 205, 18.7 µM (inactive); in the assay with DU-145, 52.1 µM (inactive); with HCC 2998, 27.9 µM (inactive); with HL-60 it was 32.1 µM (inactive); in the assay with HOP-62, 45.2 µM (inactive). Further, the GI50 in the assay on MDA-N was 31.9 µM (inactive); in the assay on MOLT-4, 56.8 µM (inactive); with Malme-3M, 31.6 µM (inactive); in the assay with NCI-H226 it was 38.8 µM (inactive); in the assay on NCI/ADR-RES, 32.1 µM (inactive); in the assay with OVCAR-3, 47.2 µM (inactive). Also, the GI50 with OVCAR-4 is 72.1 µM (inactive); in the assay with RXF 393 it was 29.2 µM (inactive); with SF-295, 45.4 µM (inactive); in the assay on SK-OV-3 it was > 100 µM (inactive); with SN12C, 45.4 µM (inactive); in the assay on SNB-75, 45 µM (inactive). For the same molecule, in the assay with U-251, the GI50 is 73.8 µM (inactive).

As for `COc1cc2c(/C=C3/C(=O)Nc4ccccc43)c(Cl)[nH]c2cc1C`, the GI50 in the assay on CAKI-1 is 0.0689 µM (active); in the assay on COLO 205, 0.0552 µM (active); in the assay with DU-145 it was 0.0955 µM (active); in the assay on HCC 2998, 0.0861 µM (active); with HL-60, 0.035 µM (active); with HOP-62, 0.107 µM (active). The GI50 with MDA-N was 0.0191 µM (active); in the assay on MOLT-4 it was 0.118 µM (active); in the assay with NCI-H226, 0.373 µM (active); in the assay with NCI/ADR-RES it was 0.0263 µM (active); in the assay with OVCAR-3 it was 0.0434 µM (active); in the assay on OVCAR-4, 0.0521 µM (active). The GI50 with RXF 393 was 0.311 µM (active); in the assay with SF-295 it was 0.0252 µM (active); in the assay on SK-OV-3 it was 0.0314 µM (active); in the assay on SN12C it was 0.0845 µM (active); in the assay on SNB-75 it was 0.192 µM (active); in the assay on U-251, 0.041 µM (active).

Regarding `CC1=NN(c2cccc(Cl)c2)C2(C1)SCC(=O)N2c1nc2ccccc2s1` (stereo not drawn), the GI50 is 32.6 µM (inactive) in the assay on CAKI-1; 18.1 µM (inactive) in the assay with COLO 205; 24.6 µM (inactive) with DU-145; 17.9 µM (inactive) in the assay on HCC 2998; 22.2 µM (inactive) in the assay with HL-60; 19.4 µM (inactive) in the assay on HOP-62. In addition, the GI50 in the assay on MDA-N was 33 µM (inactive); in the assay on MOLT-4 it was 16.1 µM (inactive); with Malme-3M it was 34.3 µM (inactive); in the assay on NCI-H226, 11.6 µM (inactive); in the assay on NCI/ADR-RES, 32.1 µM (inactive); with OVCAR-3, 16.2 µM (inactive). Further, the GI50 was 34 µM (inactive) in the assay on OVCAR-4; 17.7 µM (inactive) in the assay with RXF 393; 23.2 µM (inactive) in the assay on SF-295; 21.6 µM (inactive) in the assay with SK-OV-3; 22.1 µM (inactive) with SN12C; 13.2 µM (inactive) with SNB-75. For the same molecule, the GI50 with U-251 is 27 µM (inactive).

Regarding `CCC(C)C1NC(=O)C(NC(=O)C(CC(C)C)N(C)C(=O)[C@@H]2CCCN2)C(C)OC(=O)[C@H](Cc2ccc(OC)cc2)N(C)C(=O)[C@@H]2CCCN2C(=O)[C@H](CC(C)C)NC(=O)C(C)C(=O)[C@H](C(C)C)OC(=O)CC1O` (stereo partly drawn) (H-P[ξNMeL][ξT][X10]LP[NMeY](Me); ester 3-C), the GI50 is 0.00869 µM (active) in the assay on CAKI-1; 0.000153 µM (active) with COLO 205; 0.00227 µM (active) in the assay with DU-145; 0.000438 µM (active) in the assay with HCC 2998; 0.00389 µM (active) in the assay with HL-60; 0.00126 µM (active) in the assay on HOP-62. Also, the GI50 in the assay on MDA-N was 0.000346 µM (active); in the assay on MOLT-4, 0.000244 µM (active); with Malme-3M it was 0.000317 µM (active); in the assay on NCI-H226, < 0.01 µM (active); in the assay with NCI/ADR-RES, 0.0521 µM (active); with OVCAR-3, 0.00136 µM (active). Besides, the GI50 in the assay with OVCAR-4 is 0.000139 µM (active); in the assay with RXF 393, < 0.01 µM (active); in the assay on SF-295, 0.00144 µM (active); in the assay with SK-OV-3, 0.000386 µM (active); in the assay on SN12C it was 0.000411 µM (active); with SNB-75 it was 0.000682 µM (active). Moreover, the GI50 in the assay on U-251 is < 0.0001 µM (active).

Turning to `COc1cc(Oc2nc3c(N)cc(C(F)(F)F)cc3nc2-c2ccccc2)cc(OC)c1OC`, the GI50 in the assay with CAKI-1 was 3.98 µM (inactive); with COLO 205 it was 3.62 µM (inactive); in the assay with DU-145 it was 8.55 µM (inactive); with HCC 2998 it was 5.36 µM (inactive); with HL-60 it was 1.16 µM (inactive); with HOP-62, 3.29 µM (inactive). Besides, the GI50 is 0.412 µM (active) in the assay on MDA-N; 3.44 µM (inactive) in the assay on MOLT-4; 0.869 µM (active) with Malme-3M; 12.8 µM (inactive) with NCI-H226; 2.09 µM (inactive) in the assay on NCI/ADR-RES; 1.3 µM (inactive) in the assay on OVCAR-3. Further, the GI50 with OVCAR-4 was 19.2 µM (inactive); in the assay with RXF 393, 5.71 µM (inactive); in the assay on SF-295 it was 1.95 µM (inactive); in the assay on SK-OV-3, 4.53 µM (inactive); in the assay on SN12C it was 8.07 µM (inactive); in the assay with SNB-75, 1.23 µM (inactive). For the same molecule, the GI50 in the assay with U-251 was 5.9 µM (inactive).

On to `COc1ccc2c(cnc3c4cc(OC)c(OC)cc4ccc23)c1`, for which the GI50 in the assay with CAKI-1, in the assay on COLO 205, in the assay on DU-145, with HCC 2998, with HL-60 and in the assay with HOP-62 was > 100 µM (inactive) throughout. The GI50 in the assay on MDA-N, in the assay with MOLT-4, in the assay on Malme-3M, in the assay on NCI-H226, in the assay with NCI/ADR-RES and in the assay on OVCAR-3 was > 100 µM (inactive) throughout. The GI50 in the assay on OVCAR-4, in the assay with RXF 393, with SF-295, in the assay on SK-OV-3, in the assay on SN12C and in the assay with U-251 was > 100 µM (inactive) throughout.

On to `CCOC1C=CCCO1` (stereo not drawn), for which the GI50 with CAKI-1 was > 100 µM (inactive); in the assay with COLO 205, > 100 µM (inactive); in the assay with DU-145, > 100 µM (inactive); with HCC 2998, 1.55 µM (inactive); in the assay on HL-60, > 100 µM (inactive); in the assay with HOP-62 it was > 100 µM (inactive). The GI50 in the assay on MDA-N, in the assay on MOLT-4, with Malme-3M, with NCI-H226, in the assay with NCI/ADR-RES and in the assay on OVCAR-3 was > 100 µM (inactive) throughout. For the same molecule, the GI50 in the assay with OVCAR-4, in the assay with RXF 393, in the assay with SF-295, in the assay with SK-OV-3, in the assay on SN12C and in the assay with SNB-75 was > 100 µM (inactive) throughout.

Regarding `CC(NC(=O)Cc1ccc(OP(=O)(OCc2ccc([N+](=O)[O-])o2)N(C)CCCCCl)cc1)c1ccc(OCC2CCCCC2)c(C(N)=O)c1` (stereo not drawn), the GI50 in the assay on CAKI-1 is 2.91 µM (inactive); with COLO 205, 1.63 µM (inactive); in the assay with DU-145, 2.8 µM (inactive); in the assay with HCC 2998, 1.35 µM (inactive); with HL-60 it was 2.22 µM (inactive); in the assay with HOP-62, 2.65 µM (inactive). For the same molecule, the GI50 with MDA-N is 1.88 µM (inactive); in the assay on MOLT-4, 1.52 µM (inactive); in the assay on Malme-3M, 1.77 µM (inactive); with NCI-H226, 2.48 µM (inactive); in the assay on NCI/ADR-RES it was 4.5 µM (inactive); in the assay on OVCAR-3 it was 1.66 µM (inactive). Moreover, the GI50 in the assay with OVCAR-4 is 2.16 µM (inactive); in the assay on RXF 393 it was 1.99 µM (inactive); with SF-295 it was 2.24 µM (inactive); in the assay with SK-OV-3, 3.08 µM (inactive); in the assay with SN12C it was 1.96 µM (inactive); in the assay with U-251, 2.14 µM (inactive).

The record behind these values is ChEMBL document CHEMBL1201862, “PubChem BioAssay data set” (2004).
